Measurements taken from patent US20220256852A1, “NOVEL CRYSTALLINE FORM OF PYROXASULFONE, METHODS FOR ITS PREPARATION AND USE OF THE SAME” (ROTAM AGROCHEM INTERNATIONAL COMPANY LIMITED, priority 2021, published 2022).

How the values were obtained:
[1] = format: physicochemical
Protocol: Samples (S1, S2 and S3) were stored at 54° C. for 1 month, 3 months and 6 months. The procedures were followed according to CIPAC MT 46.3. The concentration of Pyroxasulfone was measured at the end of each storage time by HPLC. The aggregation was measured by observation. The original concentration of Pyroxasulfone in each formulation was 40%.

[2] = Dispersibility test of water dispersible granules (WG); format: physicochemical; conditions: summary of Table 4
Protocol: 0.3077 g of calcium carbonate and 0.092 g of magnesium oxide were dissolved in a small amount of diluted hydrochloric acid, then heated and boiled on a sand bath to remove hydrochloric acid. Distilled water was added to the remaining solution to make 10 liters in total. Subsequently, 100 ml of the obtained solution was put into a 100 ml stoppered measuring cylinder, and kept at 20° C. in a temperature-controlled room. 100 mg samples of S4 to S6 were put into the measuring cylinder, and left to stand for 30 seconds. The measuring cylinder was then turned upside down repeatedly at a rate of once a second, whereupon the turning-down frequency (number of turns) needed for disintegrating the whole water-dispersible material was counted.

For `Cn1nc(C(F)(F)F)c(CS(=O)(=O)C2=NOC(C)(C)C2)c1OC(F)F` [3-[[[5-(difluoromethoxy)-1-methyl-3-(trifluoromethyl)-1H-pyrazol-4-yl]methyl]sulfonyl]-4,5-dihydro-5,5-dimethylisoxazole], which “storage stability compared with amorphous Pyroxasulfone” value [1] is on record?
The value was “significantly higher storage stability”.

And the “tendency to aggregate during storage” value ([1]; summary of Table 5)?
Its value is “significantly lower tendency to aggregate”.

What about the “dispersibility compared with amorphous Pyroxasulfone” value [2] of the same molecule?
The value was “significantly higher dispersibility”.
